Source: patent EP0549857A1, “Antibacterial quinolone carboxylic acid derivatives” (KOREA RESEARCH INSTITUTE OF CHEMICAL TECHNOLOGY, priority 1991, dated 1993)
Converted amounts (≈) assume the structure as drawn. Like-named read-outs stand apart in the source and are kept apart here.

Experiments:
Assay in all cases: In vitro anti-bacterial activity test (MIC, two-fold agar dilution)
Assay type in all cases: cell-based
Salmonella typhimurium = conditions: Mueller-Hinton agar, 10⁷ CFU/mℓ, 37°C, 18 hours
[1] = system: Staphylococcus aureus SG 511; conditions: Staphylococcus aureus SG 511, Mueller-Hinton agar, 10⁷ CFU/mℓ, 37°C, 18 hours
Escherichia coli OTEM = conditions: Mueller-Hinton agar, 10⁷ CFU/mℓ, 37°C, 18 hours
[2] = system: Pseudomonas aeruginosa 1771; conditions: Pseudomonas aeruginosa 1771, Mueller-Hinton agar, 10⁷ CFU/mℓ, 37°C, 18 hours
[3] = system: Klebsiella aerogenes 1082E; conditions: Mueller-Hinton agar, 10⁷ CFU/mℓ, 37°C, 18 hours
[4] = system: Streptococcus pyogenes 77A; conditions: Streptococcus pyogenes 77A, Mueller-Hinton agar, 10⁷ CFU/mℓ, 37°C, 18 hours
[5] = system: Pseudomonas aeruginosa 1592E; conditions: Mueller-Hinton agar, 10⁷ CFU/mℓ, 37°C, 18 hours
Escherichia coli O 55 = conditions: 10⁷ CFU/mℓ, 37°C, 18 hours
Enterobacter cloacae P99 = conditions: Mueller-Hinton agar, 10⁷ CFU/mℓ, 37°C, 18 hours
Escherichia coli 1507E = conditions: Mueller-Hinton agar, 10⁷ CFU/mℓ, 37°C, 18 hours
[6] = system: Pseudomonas aeruginosa 9027; conditions: Pseudomonas aeruginosa 9027, Mueller-Hinton agar, 10⁷ CFU/mℓ, 37°C, 18 hours
[7] = system: Staphylococcus aureus 285; conditions: Staphylococcus aureus 285, Mueller-Hinton agar, 10⁷ CFU/mℓ, 37°C, 18 hours
Escherichia coli DC 0 = conditions: 10⁷ CFU/mℓ, 37°C, 18 hours
[8] = system: Streptococcus faecium MD 8b; conditions: Streptococcus faecium MD 8b, Mueller-Hinton agar, 10⁷ CFU/mℓ, 37°C, 18 hours
[9] = system: Streptococcus pyogenes 308A; conditions: Mueller-Hinton agar, 10⁷ CFU/mℓ, 37°C, 18 hours
Escherichia coli DC 2 = conditions: 10⁷ CFU/mℓ, 37°C, 18 hours
[10] = system: Enterobacter cloacae 1321E; conditions: Mueller-Hinton agar, 10⁷ CFU/mℓ, 37°C, 18 hours
[11] = system: Staphylococcus aureus 503; conditions: Staphylococcus aureus 503, Mueller-Hinton agar, 10⁷ CFU/mℓ, 37°C, 18 hours
[12] = system: Klebsiella aerogenes 1522E; conditions: Mueller-Hinton agar, 10⁷ CFU/mℓ, 37°C, 18 hours
[13] = system: Pseudomonas aeruginosa 1771M; conditions: 18 h
[14] = Salmonella enterica, read-out: MIC
[15] = O55, Mueller-Hinton agar, read-out: MIC
[16] = DC0, Mueller-Hinton agar, read-out: MIC
[17] = Enterococcus faecium, MD8B, read-out: MIC
[18] = DC2, Mueller-Hinton agar, read-out: MIC

Compound	MIC (Salmonella typhimurium; [14])	MIC ([1]; SG511, read-out: MIC)	MIC (Escherichia coli OTEM; read-out: MIC)	MIC ([2]; read-out: MIC)	MIC ([3]; read-out: MIC)	MIC ([4]; read-out: MIC)	MIC ([5]; read-out: MIC)	MIC (Escherichia coli O 55; [15])	MIC (Enterobacter cloacae P99; read-out: MIC)	MIC (Escherichia coli 1507E; read-out: MIC)	MIC ([6]; read-out: MIC)	MIC ([7]; read-out: MIC)	MIC (Escherichia coli DC 0; [16])	MIC [8, 17]	MIC ([9]; read-out: MIC)	MIC (Escherichia coli DC 2; [18])	MIC ([10]; read-out: MIC)	MIC ([11]; read-out: MIC)	MIC ([12]; read-out: MIC)	MIC [13]	further results
7-[6-amino-3-azabicyclo[3,3,0]oct-1(5) ene-3-yl]-5-amino-1-cyclopropyl-6,8-difluoro-1,4-dihydro-4-oxoquinoline-3-carboxylic acid [Example 10]																					MIC (Salmonella typhimurium): 0.025 µg/mL; MIC [1]: 0.025 µg/mL; MIC (Escherichia coli OTEM): 0.049 µg/mL; MIC [2]: 1.563 µg/mL; MIC [3]: 0.007 µg/mL; MIC [4]: 0.049 µg/mL; MIC [5]: 1.563 µg/mL; MIC (Escherichia coli O 55; Mueller-Hinton agar): 0.025 µg/mL; MIC (Enterobacter cloacae P99): 0.025 µg/mL; MIC (Escherichia coli 1507E): 0.049 µg/mL; MIC [6]: 1.563 µg/mL; MIC [7]: 0.049 µg/mL; MIC (Escherichia coli DC 0; Mueller-Hinton agar): 0.781 µg/mL; MIC [8]: 0.195 µg/mL; MIC [9]: 0.195 µg/mL; MIC (Escherichia coli DC 2; Mueller-Hinton agar): 0.049 µg/mL; MIC [10]: 0.025 µg/mL; MIC [11]: 0.025 µg/mL; MIC [12]: 0.098 µg/mL
CNC1CCC2=C1CN(c1c(F)cc3c(=O)c(C(=O)O)cn(C4CC4)c3c1Cl)C2 (stereo not shown) [Example 4, 7-[6-methylamino-3-azabicyclo[3,3,0]oct-1(5)ene-3-yl]-8-chloro-1-cyclopropyl-6-fluoro-1,4-dihydro-4-oxoquinoline-3-carboxylic acid]	0.049 µg/mL (≈ 0.117 µM)	0.025 µg/mL (≈ 0.0598 µM)	0.098 µg/mL (≈ 0.235 µM)	3.12 µg/mL (≈ 7.48 µM)	< 0.002 µg/mL	0.025 µg/mL (≈ 0.0598 µM)	3.12 µg/mL (≈ 7.48 µM)	0.025 µg/mL (≈ 0.0598 µM)	0.098 µg/mL (≈ 0.235 µM)	0.098 µg/mL (≈ 0.235 µM)	3.12 µg/mL (≈ 7.48 µM)	0.049 µg/mL (≈ 0.117 µM)	0.781 µg/mL (≈ 1.87 µM)	0.049 µg/mL (≈ 0.117 µM)	0.195 µg/mL (≈ 0.467 µM)	0.025 µg/mL (≈ 0.0598 µM)	0.098 µg/mL (≈ 0.235 µM)	0.025 µg/mL (≈ 0.0598 µM)	0.195 µg/mL (≈ 0.467 µM)	0.781 µg/mL (≈ 1.87 µM)	
NC1CCCC2=C1CN(c1c(F)cc3c(=O)c(C(=O)O)cn(C4CC4)c3c1F)C2 (stereo not shown) [Example 9, 7-[6-amino-3-azabicyclo[4,3,0]non-1(5)ene-3-yl]-1-cyclopropyl-6,8-difluoro-1,4-dihydro-4-oxoquinoline-3-carboxylic acid]	0.013 µg/mL (≈ 0.0324 µM)	0.098 µg/mL (≈ 0.244 µM)	0.098 µg/mL (≈ 0.244 µM)	3.12 µg/mL (≈ 7.78 µM)	0.195 µg/mL (≈ 0.486 µM)	0.098 µg/mL (≈ 0.244 µM)	3.12 µg/mL (≈ 7.78 µM)	0.049 µg/mL (≈ 0.122 µM)	0.049 µg/mL (≈ 0.122 µM)	0.098 µg/mL (≈ 0.244 µM)	3.12 µg/mL (≈ 7.78 µM)	0.098 µg/mL (≈ 0.244 µM)	0.781 µg/mL (≈ 1.95 µM)	0.098 µg/mL (≈ 0.244 µM)	0.391 µg/mL (≈ 0.974 µM)	0.195 µg/mL (≈ 0.486 µM)		0.098 µg/mL (≈ 0.244 µM)	0.195 µg/mL (≈ 0.486 µM)	0.781 µg/mL (≈ 1.95 µM)	
CNC1CCC2=C1CN(c1c(F)c(N)c3c(=O)c(C(=O)O)cn(C4CC4)c3c1F)C2 (stereo not shown) [Example 11, 7-[6-methylamino-3-azabicyclo[3,3,0]oct-1(5)ene-3-yl]-5-amino-1-cyclopropyl-6,8-difluoro-1,4-dihydro-4-oxoquinoline-3-carboxylic acid]	0.098 µg/mL (≈ 0.235 µM)	0.195 µg/mL (≈ 0.468 µM)	0.049 µg/mL (≈ 0.118 µM)	3.12 µg/mL (≈ 7.5 µM)	0.007 µg/mL (≈ 0.0168 µM)	0.195 µg/mL (≈ 0.468 µM)	3.12 µg/mL (≈ 7.5 µM)	0.025 µg/mL (≈ 0.06 µM)	0.195 µg/mL (≈ 0.468 µM)	0.098 µg/mL (≈ 0.235 µM)	3.12 µg/mL (≈ 7.5 µM)	0.049 µg/mL (≈ 0.118 µM)	1.56 µg/mL (≈ 3.75 µM)	0.195 µg/mL (≈ 0.468 µM)	0.391 µg/mL (≈ 0.939 µM)	0.049 µg/mL (≈ 0.118 µM)	0.049 µg/mL (≈ 0.118 µM)	0.049 µg/mL (≈ 0.118 µM)	0.195 µg/mL (≈ 0.468 µM)	1.56 µg/mL (≈ 3.75 µM)	
CNC1CCC2=C1CN(c1nc3c(cc1F)c(=O)c(C(=O)O)cn3C1CC1)C2 (stereo not shown) [Example 15, 7-[6-methylamino-3-azabicyclo[3,3,0]oct-1(5)ene-3-yl]-1-cyclopropyl-6-fluoro-1,4-dihydro-4-oxo-1,8-naphthyridine-3-carboxylic acid]	0.195 µg/mL (≈ 0.507 µM)	0.098 µg/mL (≈ 0.255 µM)	0.098 µg/mL (≈ 0.255 µM)	3.12 µg/mL (≈ 8.13 µM)	0.025 µg/mL (≈ 0.065 µM)	0.195 µg/mL (≈ 0.507 µM)	3.12 µg/mL (≈ 8.13 µM)	0.049 µg/mL (≈ 0.127 µM)	0.049 µg/mL (≈ 0.127 µM)	0.195 µg/mL (≈ 0.507 µM)	3.12 µg/mL (≈ 8.13 µM)	0.195 µg/mL (≈ 0.507 µM)	1.56 µg/mL (≈ 4.07 µM)	0.195 µg/mL (≈ 0.507 µM)	0.781 µg/mL (≈ 2.03 µM)	0.391 µg/mL (≈ 1.02 µM)	0.049 µg/mL (≈ 0.127 µM)	0.098 µg/mL (≈ 0.255 µM)	0.195 µg/mL (≈ 0.507 µM)	1.56 µg/mL (≈ 4.07 µM)	
CNC1CCC2=C1CN(c1c(F)cc3c(=O)c(C(=O)O)cn4c3c1OC[C@@H]4C)C2 (stereo partly drawn) [Example 17, 9-fluoro-10-[6-methylamino-3-azabicyclo [3,3,0]oct-1(5)ene-3-yl]-3-(S)-methyl-7-oxo-2,3-dihydro-7H-pyrido[1,2,3-de]-1,4-benzoxazine-6-carboxylic acid]	0.391 µg/mL (≈ 0.979 µM)	0.391 µg/mL (≈ 0.979 µM)	0.391 µg/mL (≈ 0.979 µM)	12.5 µg/mL (≈ 31.3 µM)	0.195 µg/mL (≈ 0.488 µM)	0.195 µg/mL (≈ 0.488 µM)	6.25 µg/mL (≈ 15.6 µM)	0.195 µg/mL (≈ 0.488 µM)	0.781 µg/mL (≈ 1.96 µM)	0.781 µg/mL (≈ 1.96 µM)	12.5 µg/mL (≈ 31.3 µM)	0.781 µg/mL (≈ 1.96 µM)	3.12 µg/mL (≈ 7.82 µM)	0.391 µg/mL (≈ 0.979 µM)	3.12 µg/mL (≈ 7.82 µM)	0.391 µg/mL (≈ 0.979 µM)	0.391 µg/mL (≈ 0.979 µM)	0.781 µg/mL (≈ 1.96 µM)	1.56 µg/mL (≈ 3.91 µM)	3.12 µg/mL (≈ 7.82 µM)	
